Laboratory results reported in publication PMC6318274, “Lattice engineering enables definition of molecular features allowing for potent small-molecule inhibition of HIV-1 entry” (Nature Communications, 2019).
Where two headings read alike, the source gives them in different places.

Assays:
[1] = tested on: SVA.MLV; design: method as in earlier work; settings: clade NA; cited from earlier work
[2] = tested on: HIV-1 strain NL4-3; settings: cited from earlier work
[3] = tested on: HIV-1 strain NL4-3; assay: Entry inhibition of laboratory-adapted HIV-1 strain NL4-3; assay type: cell-based; settings: Human immunodeficiency virus 1, NL43; NL4-3
[4] = tested on: SVA.MLV; assay: Neutralization assay, control virus SVA.MLV; assay type: cell-based; settings: clade NA
Description: Neutralization was measured using single-round-of-infection HIV-1 Env-pseudoviruses and TZM-bl target cells (ARP Cat No. #8129)[44],[45]. Compounds were prepared at 400 μM with 4% DMSO (dimethyl sulfoxide) in PBS (phosphate-buffered saline) and diluted 20 times as the starting concentration for serial dilution in the neutralization assays. Pseudoviruses of ten strains from HIV-1 clades A, B, and C were incubated with serial dilutions of drug compounds, then added to TZM-bl target cells which have a luciferase reporter gene. After incubation at 37 °C for 2 days, infection of target cells was measured by luciferase activity. Neutralization curves were fit by nonlinear regression using a five-parameter hill slope equation[45].

Row | SMILES | IC50 [1] [nM] | EC50 [2] [nM] | EC50 [3] [nM] | IC50 [4] [nM]
1 | COc1cnc(-n2cnc(C)n2)c2[nH]cc(C(=O)C(=O)N3CCN(C(=O)c4ccccc4)CC3)c12 [BMS-626529] | > 20000 | 2.2 ± 0.6 | – | –
2 | COc1cnc(-c2csc(C(=O)NCCO)n2)c2[nH]cc(C(=O)C(=O)N3CCC(=C(C#N)c4ccccc4)CC3)c12 [BMS-818251] | – | – | 0.019 ± 0.003 | > 20000
